Measurements taken from article PMC9416745, “The Effect of 1,2,4-Triazole-3-thiol Derivatives Bearing Hydrazone Moiety on Cancer Cell Migration and Growth of Melanoma, Breast, and Pancreatic Cancer Spheroids” (Pharmaceuticals, 2022).

Key:
[1] = system: human malignant melanoma cell line IGR39; assay: MTT cell viability assay, IGR39; type: cell-based
Protocol: (§1) The effect of synthesized compounds on cell viability was studied using 3-(4,5-dimethylthiazol-2-yl)-2,5-diphenyltetrazolium bromide (MTT; Sigma-Aldrich Co., St Louis, MO, USA) assay, as described elsewhere. Briefly, IGR39, MDA-MB-231, Panc-1, and HF cells were seeded in 96-well plates (Corning) in triplicate at a volume of 100 μL (IGR39, MDA-MB-231 and Panc-1: 4 × 10^3 cells/well; HF: 5 × 10^3 cells/well). After 24 h, cells were treated with 50 μM of tested compounds. After 72 h, the MTT reagent was added and cells were incubated for 4 h. Then the medium was aspirated, and the formed formazan crystals were dissolved in 100 μL DMSO (Sigma-Aldrich Co., St. Louis, MO, USA). The absorbance was measured at 570 and 630 nm using a multi-detection microplate reader. The compound effect on cell viability was calculated using the formula:(1) Relative cell viability (%)=A−A0/ANC−A0 where
(§2) • A—mean of absorbance of the tested compound, • A0—mean of absorbance of blank (no cells, positive control), and • ANC—mean of absorbance of negative control (only cells, no treatment).
(§3) The compound serial dilutions from 50 µM to 1.56 µM were made in a medium and added to the cells in triplicates. The EC50 value representing the concentration of a compound causing 50% reduction of cancer cell metabolic activity was calculated using the Hill equation.

[2] = system: IGR39, MDA-MB-231 and Panc-1 cell lines; assay: MTT cell viability assay, result stated for all tested cancer cell lines together; type: cell-based, human; conditions: 72 h
Protocol: as §1, §2, §3

[3] = system: IGR39, MDA-MB-231 and Panc-1 tumour spheroids; assay: 3D cell cultures (spheroids), stated for all three spheroid types; type: cell-based, human; conditions: 10 µM, 8 days of incubation
Protocol: (§4) Cancer cell spheroids were formed using the magnetic 3D Bioprinting method, as described elsewhere. Briefly, melanoma IGR39, triple-negative breast cancer MDA-MB-231 cells, pancreatic cancer Panc-1 cells, and human fibroblasts at 70% confluency in a 6-well plate were incubated with Nanoshuttle (n3D Biosciences, Inc., Houston, TX, USA) for 8 h at 37°C in a humidified atmosphere containing 5% CO2. Then cells were trypsinized, centrifuged, and seeded into an ultra-low attachment 96-well plate in a volume of 100 µL (1.5 × 10^3 cancer cells and 1.5 × 10^3 human fibroblasts/well). The plate was placed on a magnetic drive and incubated for 2 days at 37°C in a humidified atmosphere containing 5% CO2. Then the fresh medium containing 10 µM of the tested compound was added to the wells. Spheroids were captured every two days using the Olympus IX73 inverted microscope (OLYMPUS CORPORATION, Tokyo, Japan). Quantitative analysis of compound anticancer activity in spheroids was performed using ImageJ, version 1.53o (National Institutes of Health, USA) and Microsoft Office Excel 2016 software (Microsoft Corporation, Redmond, WA, USA).
(§5) On the last day of incubation, 10 µL of WST-1 reagent (Sigma-Aldrich Co, St. Louis, MO, USA) was added to each well with spheroids. After 10 h of incubation, 50 µL of liquid from each well were transferred to the new 96-well plate and the absorbance was measured at 460 and 530 nm using a multi-detection microplate reader. Spheroid cell viability was calculated using a formula provided in Section 3.2.2.

[4] = system: melanoma IGR39 spheroids; assay: 3D cell cultures (spheroids), IGR39; type: cell-based, human; conditions: 10 µM, 8 days of incubation
Protocol: as §4, §5

[5] = system: human triple-negative breast cancer MDA-MB-231; assay: MTT cell viability assay, MDA-MB-231; type: cell-based
Protocol: as §1, §2, §3

[6] = system: human pancreatic carcinoma cell line Panc-1; assay: MTT cell viability assay, Panc-1; type: cell-based; conditions: 72 h, serial dilutions 50-1.56 µM, n = 3, read-out: EC50 against Panc-1
Protocol: as §1, §2, §3

[7] = system: Human foreskin fibroblasts (HF) CRL-4001; assay: MTT cell viability assay, fibroblasts; type: cell-based; conditions: 72 h
Protocol: as §1, §2, §3

[8] = system: IGR39, MDA-MB-231 and Panc-1 cell migration; assay: 'Wound healing' cell migration assay, stated for all tested cell lines; type: cell-based, human; conditions: 10 µM, compared to the control
Protocol: (§6) Briefly, melanoma IGR39, human triple-negative breast cancer MDA-MB-231, and pancreatic carcinoma Panc-1 cells were seeded in 24-well plates at a density of 6 × 10^4 cells/well and incubated for 48 h in previously described cell culture medium at 37°C in a humidified atmosphere containing 5% CO2. Then the scratch was made using a 100 µL pipette tip. Cells were washed once with PBS, and the fresh medium containing 10 µM of compounds 4, 7, 8, 10, 14, 17, and 18 was added. Medium containing 0.1% DMSO was used as a negative control. Cells were incubated at 37 °C in a humidified atmosphere containing 5% CO2.
(§7) The ‘Wounds’ were captured at the intervals of 0 h, 24 h, 48 h and 72 h (only for the Panc-1 cell line) from scratch under the phase contrast microscope at a 4× magnification. The wound area was analysed using the ImageJ program (National Institute of Health, Bethesda, MD, USA).

[9] = system: MDA-MB-231 cell migration; assay: 'Wound healing' cell migration assay, MDA-MB-231; type: cell-based, human; conditions: 10 µM, both after 24 h and 48 h of incubation
Protocol: as §6, §7

O=C(CSc1nnc(CCNc2ccccc2)n1-c1ccccc1)NN=C1C(=O)Nc2ccc(F)cc21 [Compound 7, N′-(5-fluoro-2-oxoindolin-3-ylidene)-2-((4-phenyl-5-(2-(phenylamino)ethyl)-4H-1,2,4-triazol-3-yl)thio)acetohydrazide]
activity against the IGR39 cell line (screening) ([1]; 50 µM, 72 h): most active
melting point: 266 to 267 °C

O=C(CSc1nnc(CCNc2ccccc2)n1-c1ccccc1)NN=Cc1cc([N+](=O)[O-])ccc1O [Compound 18, N′-(2-hydroxy-5-nitrobenzylidene)-2-((4-phenyl-5-(2-(phenylamino)ethyl)-4H-1,2,4-triazol-3-yl)thio)acetohydrazide]
activity against all tested cancer cell lines (screening) ([2]; 50 µM): most active
EC50 ([2]; Homo sapiens, range over cancer cell lines, read-out: EC50 values against the tested cancer cell lines (range)): 2 to 17 µM
activity in 3D cell cultures (spheroids) [3]: most active
melanoma IGR39 spheroid growth [4]: mostly inhibited
melting point: 219 to 220 °C

CN(C)c1ccc(C=NNC(=O)CSc2nnc(CCNc3ccccc3)n2-c2ccccc2)cc1 [Compound 10, N′-(4-(dimethylamino)benzylidene)-2-((4-phenyl-5-(2-(phenylamino)ethyl)-4H-1,2,4-triazol-3-yl)thio)acetohydrazide]
selectivity against the melanoma IGR39 cell line (screening) ([1]; 50 µM, 72 h): moderate selectivity
EC50 ([1]; Homo sapiens, IGR-39, 72 h, serial dilutions 50-1.56 µM, n = 3, read-out: EC50 against IGR39): 22.3 ± 2.5 µM
EC50 ([5]; Homo sapiens, MDA-MB-231, 72 h, serial dilutions 50-1.56 µM, n = 3, read-out: EC50 against MDA-MB-231): 9.7 ± 1.6 µM
EC50 [6]: 26.2 ± 1 µM
EC50 ([7]; Homo sapiens, Fibroblast, serial dilutions 50-1.56 µM, n = 3, read-out: EC50 against fibroblasts): 61.4 ± 2.8 µM
effect on cell migration [8]: inhibited all cancer cell migration
MDA-MB-231 cell migration [9]: migrated slower
melting point: 169 to 170 °C

CSc1ccc(C=NNC(=O)CSc2nnc(CCNc3ccccc3)n2-c2ccccc2)cc1 [Compound 19, N′-(4-(methylthio)benzylidene)-2-((4-phenyl-5-(2-(phenylamino)ethyl)-4H-1,2,4-triazol-3-yl)thio)acetohydrazide]
activity against the IGR39 cell line (screening) ([1]; 50 µM, 72 h): least active
activity towards the triple-negative breast cancer cell line (screening) ([5]; 50 µM, 72 h): relatively higher activity
melting point: 196 to 197 °C

COc1ccc2c(c1)C(=NNC(=O)CSc1nnc(CCNc3ccccc3)n1-c1ccccc1)C(=O)N2 [Compound 5, N′-(5-methoxy-2-oxoindolin-3-ylidene)-2-((4-phenyl-5-(2-(phenylamino)ethyl)-4H-1,2,4-triazol-3-yl)thio)acetohydrazide]
melting point: 238 to 239 °C

O=C(CSc1nnc(CCNc2ccccc2)n1-c1ccccc1)NN=Cc1cccnc1 [Compound 12, 2-((4-Phenyl-5-(2-(phenylamino)ethyl)-4H-1,2,4-triazol-3-yl)thio)-N′-(pyridin-3-ylmethylene)acetohydrazide]
melting point: 92 to 93 °C

O=C(CSc1nnc(CCNc2ccccc2)n1-c1ccccc1)NN=Cc1ccc(C(=O)O)cc1 [Compound 13, 4-((2-(2-((4-Phenyl-5-(2-(phenylamino)ethyl)-4H-1,2,4-triazol-3-yl)thio)acetyl)hydrazono)methyl)benzoic acid]
melting point: 233 to 234 °C

O=C(CSc1nnc(CCNc2ccccc2)n1-c1ccccc1)NN=C1C(=O)Nc2ccc(OC(F)(F)F)cc21 [Compound 8, N′-(2-oxo-5-(trifluoromethoxy)indolin-3-ylidene)-2-((4-phenyl-5-(2-(phenylamino)ethyl)-4H-1,2,4-triazol-3-yl)thio)acetohydrazide]
activity against the IGR39 cell line (screening) ([1]; 50 µM, 72 h): most active
EC50 [6]: 38.5 ± 1.6 µM
cytotoxicity against fibroblasts ([7]; compared with the other selected compounds): lower cytotoxicity against fibroblasts
melting point: 258 to 259 °C

NNC(=O)CSc1nnc(CCNc2ccccc2)n1-c1ccccc1 [Compound 3, 2-((4-Phenyl-5-(2-(phenylamino)ethyl)-4H-1,2,4-triazol-3-yl)thio)acetohydrazide]
melting point: 112 to 113 °C

CCOC(=O)CSC1NN=C(CCNc2ccccc2)N1c1ccccc1 (centres unmarked) [Compound 2, Ethyl 2-((4-phenyl-3-(2-(phenylamino)ethyl)-4,5-dihydro-1H-1,2,4-triazol-5-yl)thio)acetate]
melting point: 121 to 122 °C

O=C(CSc1nnc(CCNc2ccccc2)n1-c1ccccc1)NN=Cc1c[nH]nc1-c1ccccc1 [Compound 15, N′-((3-phenyl-1H-pyrazol-4-yl)methylene)-2-((4-phenyl-5-(2-(phenylamino)ethyl)-4H-1,2,4-triazol-3-yl)thio)acetohydrazide]
melting point: 119 to 120 °C

Cn1ccc(C=NNC(=O)CSc2nnc(CCNc3ccccc3)n2-c2ccccc2)n1 [Compound 16, N′-((1-methyl-1H-pyrazol-3-yl)methylene)-2-((4-phenyl-5-(2-(phenylamino)ethyl)-4H-1,2,4-triazol-3-yl)thio)acetohydrazide]
melting point: 62 to 63 °C

O=C(CSc1nnc(CCNc2ccccc2)n1-c1ccccc1)NN=C1C(=O)Nc2ccc([N+](=O)[O-])cc21 [Compound 6, N′-(5-nitro-2-oxoindolin-3-ylidene)-2-((4-phenyl-5-(2-(phenylamino)ethyl)-4H-1,2,4-triazol-3-yl)thio)acetohydrazide]
melting point: 274 to 275 °C

O=C(CSc1nnc(CCNc2ccccc2)n1-c1ccccc1)NN=Cc1ccncc1 [Compound 11, 2-((4-Phenyl-5-(2-(phenylamino)ethyl)-4H-1,2,4-triazol-3-yl)thio)-N′-(pyridin-4-ylmethylene)acetohydrazide]
melting point: 209 to 210 °C

Cc1ccc(C=NNC(=O)CSc2nnc(CCNc3ccccc3)n2-c2ccccc2)cc1 [Compound 9, N′-(4-methylbenzylidene)-2-((4-phenyl-5-(2-(phenylamino)ethyl)-4H-1,2,4-triazol-3-yl)thio)acetohydrazide]
melting point: 189 to 190 °C
